US8895717B2, “Delivery of siRNA by neutral lipid compositions” (The Board of Regents of the University of Texas System, priority 2005, dated 2014)
d = 2'-deoxy (DNA); r = 2'-OH (RNA)

Tests used:
[1] = system: FAK; assay: FAK down-regulation by siRNA in vitro, Western blot; format: cell-based, human; details: for suppression of FAK expression: SKOV3, 72 hours of transfection
Description: siRNAs were synthesized and then purified using high-performance liquid chromatgraphy (Qiagen-Xeragon, Germantown, Md.). FAK siRNA sense: r(CCACCUGGGCCAGUAUUAU)d(TT) (SEQ ID NO:7); antisense: r(AUAAUACUGGCCCAGGUGG)d(TT) (SEQ ID NO:8) and control siRNA sense: r(UUUUCCGAACGUGUCACGU)dTT; (SEQ ID NO:9) antisense: r(ACGUGACACGUUCGGAGAA)dTT (SEQ ID NO:10) bearing no sequence homology with any known human mRNA sequences were dissolved in buffer (100 mmol/L potassium acetate, 30 mmol/L HEPES potassium hydroxide, 2 mmol/L magnesium acetate, pH 7.4) to a final concentration of […], heated to 90° C. for 60 seconds, incubated at 37° C. for 60 minutes, and stored at −20° C. until future use.
Cells were lysed in modified RIPA buffer (50 mM Tris, 150 mM NaCl, 1% triton, 0.5% deoxycholate plus 25 µg/ml leupeptin, 10 µg/ml aprotinin, 2 mM EDTA, and 1 mM sodium orthovanadate (Sigma Chemical Co, St. Louis, Mo.) as previously described (Sood et al., 2004; Sood et al., 2002). A sample was removed from culture dishes by cell scraping and centrifuged at 12,500 rpm for 30 min. The […] protein concentration of the supernatant was determined using a bicinchoninic acid protein assay reagent kit (Pierce, Rockford, Ill.), and whole cell lysates were analyzed by 7.5% SDS-PAGE. Samples were then transferred to nitrocellulose membrane by semi-dry transfer (BioRad Laboratories, Hercules, Calif.). Membranes were blocked with 5% nonfat milk, and incubated with 0.25 μg/mL anti-FAK antibody (Biosource, International Camarillo, Calif.) for 1 h at room temperature. Antibody was detected with 0.167 μg/mL HRP-conjugated anti-mouse secondary antibody (The Jackson Laboratory, Bar Harbor, Me.) and developed with an enhanced chemiluminescence detection kit (Pierce). Equal loading was confirmed by detection of β-actin (0.1 μg/ml, anti-β-actin antibody, Sigma Chemical). Densitometric analysis was performed using the Scion Imaging software (Scion Corporation, Frederick, Md.).
Next, the inventors sought to examine whether FAK silencing using siRNA will sensitize ovarian cancer cells to docetaxel.

[2] = system: HeyA8 cells; assay: In vivo therapy with DOPC-FAK siRNA, HeyA8 model; parameters: species or system nude mice; details: for Incidence (%) / No. Nodules: siRNA in DOPC twice weekly, docetaxel 50 μg weekly
Description: (§1) siRNA for in vivo delivery was incorporated into the phospholipid 1,2-dioleoyl-sn-glycero-3-phosphatidylcholine (DOPC). DOPC and siRNA were mixed in the presence of excess tertiary-butanol at a ratio of […], as previously described (Landen et al., 2005). Tween-20 was added to the mixture at a ratio of 1:19. The mixture was vortexed, frozen in an acetone/dry ice bath, and lyophilized. Before in vivo administration, this preparation was hydrated with normal (0.9%) saline at a concentration of 15 μg/ml to achieve the desired dose of 150-200 μl per injection. To estimate the quantity of siRNA not taken up by liposomes free siRNA was separated from liposomes by using filter units with a 30,000 nominal molecular weight limit (Millipore Corp, Billerica, Mass.). The liposomal suspension was added to the filters and centrifuged at 5,000 g for 40 min at room temperature. Fractions were collected, the material trapped in the filter was reconstituted with 0.9% saline, and the amount of siRNA in the collected fraction and eluent were measured by spectrophotometry.
(§2) To produce tumors, SKOV3ip1, Hey A8-MDR cells (1×10^6 cells/0.2 ml of HBSS) and Hey A8 cells (2.5×10^5 cells/0.2 ml of HBSS) were injected interperitoneally (i.p.) into the mice. For in vivo injections, cells were trypsinized and centrifuged at 1000 rpm for 7 minutes at 4° C., washed twice with PBS and reconstituted in serum-free Hank's balanced salt solution (HBSS, Life Technologies, Carlsbad, Calif.). Only single-cell suspensions with >95% viability, as determined by trypan blue exclusion, were used for the in vivo injections. Mice (n=10 per group) were monitored for adverse effects of therapy and were sacrificed on day 35 (SKOV3ip1) or day 28 (HeyA8 or HeyA8-MDR) or when any of the mice began to appear moribund. Mouse weight, tumor weight, and tumor distribution were recorded. Tissue specimens were snap frozen for lysate preparation, fixed in formalin for paraffin embedding or frozen on OCT compound (Miles, Inc., Elkhart, Ind.) for frozen slide preparation.
(§3) Based on the results of preliminary dose-response studies, a series of three separate therapy studies were initiated using the optimal FAK siRNA dosage. Tumor cells were injected i.p. and 7 days later, the mice were randomly assigned to five treatment groups: empty liposome twice weekly, non-specific control […] siRNA (3 μg) twice weekly, control FAK siRNA (3 μg) twice weekly in combination with 50 μg docetaxel weekly, FAK siRNA twice weekly and FAK siRNA (3 μg) twice weekly in addition to 50 μg docetaxel weekly.
The SKOV3ip1 or HeyA8 ovarian cancer cells were implanted into the peritoneal cavity of athymic nude mice for experiments designed to test the therapeutic potential of FAK-targeted inhibition of gene expression. Seven days later, therapy was started according to the following five treatment groups: 1) empty liposomes; 2) non-specific siRNA-DOPC; 3) docetaxel plus non-specific siRNA-DOPC; 4) FAK targeted siRNA-DOPC; and 5) docetaxel plus FAK-targeted siRNA-DOPC. The animals were sacrificed after 4 weeks of therapy and a necropsy was performed. The data for these therapies' effects on SKOV3ip1 and HeyA8 are summarized in FIGS. 6A and 6B, respectively. […] Treatment with FAK siRNA alone or docetaxel plus control siRNA were effective in inhibiting tumor growth (54 to 74%) in both cell lines compared with control (FIG. 13).

[3] = system: HeyA8-MDR cells; assay: In vivo therapy with DOPC-FAK siRNA, HeyA8-MDR model; parameters: species or system nude mice; details: for Incidence (%) / No. Nodules: siRNA in DOPC twice weekly, docetaxel 50 μg weekly
Description: as §1, §2, §3
Chemotherapy-resistance is a common clinical problem in the management of ovarian carcinoma. Despite high response rates with initial therapy, most patients develop recurrent tumors that are resistant to taxane and platinum chemotherapy (McGuire et al., 1996). […] Consequently FAK downregulation and its effects on sensitization of resistant tumors to chemotherapy, using the HeyA8-MDR cell line (FIG. 13C) was assessed. Therapy was started 7 days after injection of tumor cells into nude mice according to the 5 groups outlined above.

Row | Substance | suppression of FAK expression [1] [%] | suppression of FAK expression ([1]; listed as FAK-specific siRNA) [%] | FAK expression ([1]; after 24 hours of treatment) | Incidence (%) [2] [%] | No. Nodules [2] | reduction in tumor growth compared to control [3] | Incidence (%) [3] [%] | No. Nodules [3] | FAK expression compared with untreated cells ([1]; SKOV3) | reduction of tumors compared with empty liposomes [2]
1 | FAK siRNA: sense r(CCACCUGGGCCAGUAUUAU)d(TT), antisense r(AUAAUACUGGCCCAGGUGG)d(TT); for in vivo delivery incorporated into DOPC (sense CCACCUGGGCCAGUAUUAUTT; antisense AUAAUACUGGCCCAGGUGGTT; sugars from the 5' end r19 d2, backbone not given here) | 90 | > 90 | detectable decrease in FAK expression | 70 | 1.7 | about 44% | 70 | 2.1 |  | 
2 | control siRNA: sense r(UUUUCCGAACGUGUCACGU)dTT, antisense r(ACGUGACACGUUCGGAGAA)dTT, no homology with human mRNA; in vivo in DOPC (sense UUUUCCGAACGUGUCACGUTT; antisense ACGUGACACGUUCGGAGAATT; sugars from the 5' end r19 d2, backbone not given here) |  |  |  | 100 | 4.0 |  | 90 | 4.4 | did not significantly affect FAK expression | about 39%
